In patent US20250213700A1, “COMPOUNDS, COMPOSITIONS, AND METHODS FOR CELL-SPECIFIC PHARMACOLOGY” (Duke University, priority 2022, published 2025):
Read-outs that look alike come from different tables or passages of the source.

Columns and labels:
GABAAR [1] = assay: whole-mount retina, GABAAR-mediated evoked IPSC in retinal ganglion cells; assay type: cell-based, mouse; conditions: 300 nM, 15 min
Description: (FIG. 6A) Viral strategy (top panel). […] Experimental overview (second panel from the top to bottom panel). Top: whole retina; synaptic current is evoked (stim) and recorded (voltage-clamp of dTomato+ RGC), with ionic and pharmaceutical conditions chosen to isolate the AMPAR or GABAAR. A 10 min baseline is followed by 15 min application of 300 nM Rx^DART.2+30 nM Alexa^647.1DART.2. […] (FIG. 6B) CMPDA.2^DART.2 (left). Electropositive spacer (PDB 3RNN). […] AMPAR structural model (middle) (composite of PDB 5WEO, 3RNN, and 1FTL). Cylinder depicts cell membrane. […] YM90K.1^DART.2 (right). Structural model (PDB 1FTL). […] (FIG. 6C) diazepam.1^DART.2 (left). Structural model (PDB 6HUP). […] GABAAR (middle) structural model (composite of PDB 6HUP and 6HUK). […] Structural model (PDB 6HUK).
Preparation of Retina: Mice were intravitreal injected AAV10 HaloTag™-dTomato to eyes. After 8-12 weeks, the mice killed by cervical dislocation. Both eyes were removed and dissected under a stereo-microscope. Retinas were isolated from the eyecups and placed in oxygenated (95% O2/5% CO2) cold-Ames medium (Sigma-Aldrich), supplemented with 21 mM NaHCO3. After the vitreous body was removed, a retina was cut into 3 pieces, leaving each retina piece attached to a filter paper with 2 mm hole by retina ganglion-cell-side-down. The pieces of retina were stored in bubbled Ames solution at room temperature, then transferred to recording chamber with retina ganglion-cell-side-up for recording.
Whole-cell patch-clamp recording: The brain slices or retinas were perfused with bubbled aCSF at 29-30° C. with a 2 ml/min flow rate. Recordings were made by whole cell patch recording techniques using a Multiclamp 700B amplifier (Molecular Devices, Axon Instruments Inc., Union City, CA). The signals were filtered at 10 KHz and acquired using Digitate 1440A and pClamp 10.7 (Molecular Devices). The recording pipettes (4 MΩ-6 MΩ) were filled with internal solutions. For GABAA receptor-mediated evoked inhibitory postsynaptic currents ([…]) recording, the pipettes filled with Cesium Chloride-based internal solution (in mM) 135 CsCl, 2 MgCl2, 0.5 EGTA, 10 HEPES, 4 Mg-ATP, 0.5 Na-GTP, 10 Na2-phosphocreatine, and QX314 (lidocaine N-ethyl bromide), pH adjusted to 7.3 with CsOH (290 mosm). For AMPA-receptor mediated evoked excitatory postsynaptic currents (eEPSCs) recording, the pipette solution contained (in mM) 130 CsMeS, 1 MgCl2, 0.5 EGTA, 10 HEPES, 4 Mg-ATP, 0.5 Na-GTP, 10 Na2-phosphocreatine, and 4 QX314, pH adjusted to 7.3 with CsOH (290 mosm). For experiment of brain slices and retinas, the eIPSCs or eEPSCs were elicited by electrical stimuli at 0.067 Hz in 0.3-ms duration and 150-300-ρA (60-70% maximum responses) stimulation intensity at a holding potential of −70 mV. The stimulating electrode was placed within 60-100 μm from the recording neuron under voltage-clamp mode. GABA-receptor mediated eIPSCs were isolated in the presence of DNQX ([…] AMPAR antagonist) and AP-V ([…] antagonist) in the bath solution. For AMPA-receptor mediated eEPSCs, added picrotoxin ([…], GABAAR antagonist) and AP-V ([…]) to the bath solution.

endogenous GABAAR = assay: all-optical assay of GABAAR positive allosteric modulation in primary neuronal culture; assay type: cell-based, rat
Description: (§1) Cultured neuronal assays: Preparation of hippocampal cultures: Mixed glial and neuronal cultures were prepared from the hippocampus of postnatal day 0 to 1 Sprague-Dawley rat pups. Separate pools of dissociated cells were transfected via electroporation (LONZA, V4SP-3096) with plasmid constructs, and depending on assay directives, either plated individually or mixed with a different pool of electroporated cells after a 10 min recovery period. Cells were cultured on coverslips (Deckglaser) pre-treated with high molecular weight poly-D-lysine (Sigma, P7405; 0.05 mg/mL) in 24-well plates and maintained in NbActiv4 (BrainBits, Nb4-500) at 37 C, 5% CO2. Media was changed by half at DIV3 or 4 and then weekly thereafter; experiments were performed between DIV16 to DIV18.
Diazepam/Flumazenil: Dissociated neurons were electroporated with constructs and cultured for 2 weeks. The assay was performed in a modified GABAR-BASE, with an increased KCl concentration to enhance neuronal excitability and a lowered GABA level for a baseline. Again, a DRUG plate and three DoseGroups were used as described above for dosing, but no final WASH. […] Imaging alignment, proof-reading and analysis were performed in a similar fashion to the GABAR assay using MatLab.
Next it was sought to extend DART to allosteric modulators. The allosteric binding site of the GABAAR, known to bind several drugs, with effects ranging from negative to positive allosteric modulation was first analyzed. Diazepam represents the prototypic PAM at this site, and is the most clinically significant of the class. Thus, a diazepam analog was synthesized with a short alkyne attached to the amide of the diazepam core; an attachment site known to tolerate substituents and thought from structural inspection of the GABAAR-bound diazepam pose to allow linker access to free solution. Click chemistry was used to assemble the full-length diazepam.1DART.2 and leveraged an all-optical assay of endogenous GABAARs in primary neuronal culture, with ChR2 and GCaMP6s in the same cell.

GABAAR [2] = assay: cerebellar slice voltage-clamp, tonic GABAAR current in granule cells; assay type: cell-based, mouse; conditions: traditional gabazine
Description: (FIG. 4A) Validation of gabazine.1^DART.2 in cerebellar slice. Top: voltage-clamp schematic. Bottom: tonic GABAAR in granule cells expressing ^+HTP or ^ddHTP. […] Data are mean±SEM, cells normalized to baseline. (FIG. 4B) In vivo delivery of gabazine.1^DART.2 to cerebellar granule cells. Top right: schematic of experimental approach, GCaMP6f granule-cell activity obtained in the absence of sensory stimuli. Top left: example field of view, GCaMP6f signal averaged across trials. Bottom: example calcium traces (ΔF/F) in an awake ^+HTP mouse before (baseline) and after (1 μL of 1 μM gabazine.1^DART.2) infusion. (FIG. 4C) In vivo, 1 μL of 1 μM gabazine.1^DART.2 to ^+HTP mice. Color indicates ΔF/F, each row is one cell before (left) and after (right) gabazine.1^DART.2 infusion. […] (FIG. 4D) In vivo, 1 μL of 1 μM gabazine.1^DART.2 to ^ddHTP mice. Format as in panel C. […] (FIG. 4E) Validation of gabazine.7^DART.2 in VTA slice. Top: evoked-IPSC configuration. […] Data are mean±SEM, cells normalized to baseline. […] Data are mean±SEM, normalized to baseline speed of each animal.
Next, the feasibility of using DART.2 for GABAAR antagonism in live mice was explored. […] Whether this sparsity results from low excitatory drive, or high inhibitory GABAAR tone, has been difficult to address with prior tools. For example, one may attempt to reduce inhibition onto granule cells by silencing local GABA-producing neurons [golgi cells]. However, this would disinhibit local excitatory neurons [unipolar brush cells]. Thus the approach would inadvertently elevate excitatory drive onto granule cells, concomitant with the desired goal of reducing their inhibition, confounding interpretation. […] AAV DIO ^+HTPGPI or AAV DIO ^ddHTPGPI were expressed along with GCaMPxx in xxx-Cre mice; 2p. […] Next, in vivo experiments, using two-photon imaging of granule cells were performed.

endogenous GABAARs = assay: all-optical assay of GABAAR antagonism in primary neuronal culture; assay type: cell-based, rat; conditions: traditional (non-DART) version
Description: as §1
Gabazine: Dissociated neurons were electroporated with constructs and cultured for 2 weeks. The assay was performed in the same BASE solution as described above, but with the addition of synaptic blockers CPP (NMDAR antagonist; Tocris) and NBQX (AMPAR antagonist; Abcam, ab120046) to isolate GABAR activity, and a small amount of GABA (GABAR agonist; Sigma) to ensure GABAR activity (=GABAR-BASE). […] Instead, a high dose of regular gabazine was used to completely silence any cells that may not have had realized full antagonism by the end of the assay. Imaging alignment, proof-reading and analysis were performed in a similar fashion to the AMPAR assay using MatLab.
It was next focused on blocking the GABAAR, a ubiquitous transducer of synaptic inhibition. […] The structure-activity literature of gabazine, a selective GABAAR antagonist, was explored. The core gabazine pharmacophore includes of a 3-amino, 6-phenoxy-pyridazine ring, with GABA embedded in the 2-position (2 butyric acid). Based on historical, low-potency predecessors of gabazine, a longer GABA moiety (2 pentanoic acid), and methyl substituents (e.g., 5-CH3) were explored (FIG. 2F). For each variant, the 6-phenoxy moiety was modified to make a gabazinealkyne module, which was click-conjugated to DART.2. Several variants were made, including gabazine.1^DART.2 (2 butyric acid, 5-H), gabazine.5DART.2 (2 pentanoic acid, 5-H), and gabazine.7DART.2 (2 pentanoic acid, 5-CH3). An all-optical assay of endogenous GABAARs in primary neuronal culture was then developed. […] Excitatory synapses were blocked, such that opto-stimulation with ChR2 became the only source of neural excitation.

endogenous AMPARs = assay: all-optical cultured-neuron assay of AMPAR-dependent synaptic transmission; assay type: cell-based, rat; conditions: DW=Rx50/HTL50; ddHTP vs +HTP cells, 15 min
Description: as §1

Compound: COc1cc(CCCCl)ccc1CCOCCNC(=O)c1ccc(CNC(=O)CCOCCOCCOCCOCCOCCOCCOCCOCCOCCOCCOCCOCCOCCOCCOCCOCCOCCOCCOCCOCCOCCOCCOCCOCCOCCOCCOCCOCCOCCOCCOCCOCCOCCOCCOCCOCCn2cc(COCCOCCOCCOCCOCCOCCN3C(=O)CN=C(c4ccccc4)c4cc(Cl)ccc43)nn2)cc1 [diazepam.1DART.2, 1-(4-(19-(7-chloro-2-oxo-5-phenyl-2,3-dihydro-1H-benzo[e][1,4]diazepin-1-yl)-2,5,8, 11, 14, 17-hexaoxanonadecyl)-1H-1,2,3-triazol-1-yl)-N-(4-((2-(4-(3-chloropropyl)-2-methoxyphenethoxy)ethyl)carbamoyl)benzyl)-3,6,9,12, 15, 18,21,24,27, 30, 33, 36, 39, 42, 45, 48, 51, 54, 57, 60, 63, 66, 69, 72, 75, 78, 81, 84, 87, 90, 93, 96, 99, 102, 105, 108-hexatriacontaoxaundecahectan-111-amide]
- GABAAR evoked IPSC integral (total charge transfer) boost, +HTP cells (GABAAR [1]): 2 fold
- GABAAR evoked IPSC, ddHTP cells (GABAAR [1]): no effect on ddHTP RGCs
- GABAAR-mediated IPSC potentiation, +HTP RGCs (GABAAR [1]): significantly potentiated IPSCs
- GABAAR evoked IPSC, ddHTP cells (GABAAR [1]; listed as diazepam.1^DART.2): not ^ddHTP cells
- DW (t=15 m) (endogenous GABAAR; Rx50/HTL50): ~750
- EC50 (endogenous GABAAR; read-out: HTL50 (t=15 m), +HTP neurons, 15 min): 0.04 µM
- EC50 (endogenous GABAAR; read-out: Rx50, ddHTP neurons, 5 µM GABA): 30 µM

Compound: COc1ccc(-c2ccc(=N)n(CCCC(=O)O)n2)cc1 [gabazine, reference compound]
- GABAAR current after subsequent application (GABAAR [2]): blocks all GABAAR current
- effect on +HTP vs ddHTP cells (endogenous GABAARs): equally affected

Compound: O=C(CCCn1c(=O)c(=O)[nH]c2cc([N+](=O)[O-])c(-n3ccnc3)cc21)NCCOCCOCCOCCOCCOCCOCc1cn(CCOCCOCCOCCOCCOCCOCCOCCOCCOCCOCCOCCOCCOCCOCCOCCOCCOCCOCCOCCOCCOCCOCCOCCOCCOCCOCCOCCOCCOCCOCCOCCOCCOCCOCCOCCOCCC(=O)NCCOCCOCCCCCCCl)nn1 [YM90K.1DART.1, 1-(4-(24-(7-(1H-imidazol-1-yl)-6-nitro-2,3-dioxo-3,4-dihydroquinoxalin-1 (2H)-yl)-21-oxo-2,5,8, 11, 14, 17-hexaoxa-20-azatetracosyl)-1H-1,2,3-triazol-1-yl)-N-(2-(2-((6-chlorohexyl)oxy)ethoxy)ethyl)-3,6,9, 12, 15, 18, 21, 24, 27, 30, 33, 36, 39, 42, 45, 48, 51, 54, 57, 60, 63, 66, 69, 72, 75, 78, 81, 84, 87, 90, 93, 96, 99, 102, 105, 108-hexatriacontaoxaundecahectan-111-amide]
- DW (t=15 m) (endogenous AMPARs): 30
